Laboratory results: ChEMBL document CHEMBL1138126, “Tyrosine kinase inhibitors. 19. 6-Alkynamides of 4-anilinoquinazolines and 4-anilinopyrido[3,4-d]pyrimidines as irreversible inhibitors of the erbB family of tyrosine kinase receptors” (J Med Chem, 2006)
One block for each molecule: values may come before it. Calls of active or inactive are those of the source. No cut-off for these calls is given here.

Columns and labels:
[1] = biological target: T1, Epidermal growth factor receptor (Homo sapiens, UniProt P00533); assay: Inhibition of erbB1 fusion protein expressed in baculovirus by ELISA
[2] = biological target: T1, Epidermal growth factor receptor; assay: Inhibition of EGF stimulated human erbB1 autophosphorylation in NIH3T3 cells
[3] = biological target: T2, Receptor tyrosine-protein kinase erbB-2 (Homo sapiens, UniProt P04626)
Description: Inhibition of erbB2 fusion protein expressed in baculovirus by ELISA

[4] = biological target: Receptor tyrosine-protein kinase erbB-4 (Homo sapiens, UniProt Q15303)
Description: Inhibition of erbB4 fusion protein expressed in baculovirus by ELISA

[5] = biological target: T2, Receptor tyrosine-protein kinase erbB-2; remark: listed apart in the source
Description: Inhibition of HER stimulated human erbB autophosphorylation in MDA-MB-453 cells

[6] = Volume of distribution in rat at 5 mg/kg, iv; assay type: ADME, organism-based; set-up: dose 5 mg/kg, route intravenous; settings: in vivo, read-out: Vdss
[7] = Volume of distribution in dog at 5 mg/kg, iv; assay type: ADME, organism-based, Canis lupus familiaris; set-up: dose 5 mg/kg, route intravenous; settings: in vivo, read-out: Vdss
[8] = Volume of distribution in monkey at 5 mg/kg, iv; assay type: ADME, organism-based, Macaca mulatta; set-up: dose 5 mg/kg, route intravenous; settings: rhesus monkey, in vivo, read-out: Vdss
[9] = AUC(0-tz) in rat at 5 mg/kg, iv; assay type: ADME, organism-based; set-up: dose 5 mg/kg, route intravenous; settings: plasma
[10] = AUC(0-tz) in dog at 5 mg/kg, iv; assay type: ADME, organism-based, Canis lupus familiaris; set-up: dose 5 mg/kg, route intravenous; settings: plasma
[11] = system: Mus musculus; assay: Antitumor activity in NCr nu/nu mice implanted with SKOV3 xenografts at 40 mg/kg, po; assay type: functional, organism-based; set-up: dose 40 mg/kg
[12] = system: Mus musculus; assay: Antitumor activity in SCID mice implanted with SF 767 xenografts at 40 mg/kg, po; assay type: functional, organism-based; set-up: dose 40 mg/kg; settings: CB17
[13] = system: Mus musculus; assay: Antitumor activity in SCID mice implanted with BXPC3 xenografts at 40 mg/kg, po; assay type: functional, organism-based; set-up: dose 40 mg/kg; settings: CB17
[14] = AUC(0-tz) in monkey at 5 mg/kg, iv; assay type: ADME, organism-based, Macaca mulatta; set-up: dose 5 mg/kg, route intravenous; settings: rhesus monkey, plasma
[15] = AUC(0-tz) in rat at 15 mg/kg, po; assay type: ADME, organism-based; set-up: dose 15 mg/kg, route oral; settings: plasma
[16] = AUC(0-tz) in dog at 15 mg/kg, po; assay type: ADME, organism-based, Canis lupus familiaris; set-up: dose 15 mg/kg, route oral; settings: plasma
[17] = AUC(0-tz) in monkey at 30 mg/kg, po; assay type: ADME, organism-based, Macaca mulatta; set-up: dose 30 mg/kg, route oral; settings: rhesus monkey, plasma
[18] = Oral bioavailability in rat at 15 mg/kg; assay type: ADME, organism-based; settings: in vivo
[19] = Oral bioavailability in dog at 15 mg/kg; assay type: ADME, organism-based, Canis lupus familiaris; settings: in vivo
[20] = Oral bioavailability in monkey at 30 mg/kg; assay type: ADME, organism-based, Macaca mulatta; settings: rhesus monkey, in vivo
[21] = Cmax in rat at 15 mg/kg, po; assay type: ADME, organism-based; set-up: dose 15 mg/kg, route oral; settings: in vivo
[22] = Cmax in dog at 15 mg/kg, po; assay type: ADME, organism-based, Canis lupus familiaris; set-up: dose 15 mg/kg, route oral; settings: in vivo
[23] = Cmax in monkey at 30 mg/kg, po; assay type: ADME, organism-based, Macaca mulatta; set-up: dose 30 mg/kg, route oral; settings: rhesus monkey, in vivo
[24] = Tmax in rat at 15 mg/kg, po; assay type: ADME, organism-based; set-up: dose 15 mg/kg, route oral; settings: in vivo
[25] = Tmax in dog at 15 mg/kg, po; assay type: ADME, organism-based, Canis lupus familiaris; set-up: dose 15 mg/kg, route oral; settings: in vivo
[26] = Tmax in monkey at 30 mg/kg, po; assay type: ADME, organism-based, Macaca mulatta; set-up: dose 30 mg/kg, route oral; settings: rhesus monkey, in vivo
[27] = Half life in rat at 5 mg/kg, iv; assay type: ADME, organism-based; set-up: dose 5 mg/kg, route intravenous; settings: in vivo
[28] = Half life in dog at 5 mg/kg, iv; assay type: ADME, organism-based, Canis lupus familiaris; set-up: dose 5 mg/kg, route intravenous; settings: in vivo
[29] = Half life in monkey at 5 mg/kg, iv; assay type: ADME, organism-based, Macaca mulatta; set-up: dose 5 mg/kg, route intravenous; settings: rhesus monkey, in vivo
[30] = Plasma clearance in rat at 5 mg/kg, iv; assay type: ADME, organism-based; set-up: dose 5 mg/kg, route intravenous
[31] = Plasma clearance in dog at 5 mg/kg, iv; assay type: ADME, organism-based, Canis lupus familiaris; set-up: dose 5 mg/kg, route intravenous
[32] = Plasma clearance in monkey at 5 mg/kg, iv; assay type: ADME, organism-based, Macaca mulatta; set-up: dose 5 mg/kg, route intravenous; settings: rhesus monkey
[33] = biological target: Platelet-derived growth factor receptor (Homo sapiens, UniProt P09619+P16234); assay: Inhibition of PDGF receptor; assay type: protein-complex assay
[34] = biological target: Fibroblast growth factor receptor (Homo sapiens, UniProt P22607+P11362+P22455+P21802); assay: Inhibition of FGFR; assay type: protein assay
[35] = biological target: Insulin receptor (Homo sapiens, UniProt P06213); assay: Inhibition of insulin receptor
[36] = system: Mus musculus; assay: Antitumor activity in NCr nu/nu mice implanted with A431 xenografts at 10 mg/kg, po; assay type: functional, organism-based; set-up: dose 10 mg/kg
[37] = system: Mus musculus; assay: Antitumor activity in NCr nu/nu mice implanted with H125 NSC xenografts at 40 mg/kg, po; assay type: functional, organism-based; set-up: dose 40 mg/kg
[38] = biological target: T2, Receptor tyrosine-protein kinase erbB-2; remark: listed apart in the source
Description: Inhibition of ligand stimulated erbB2 autophosphorylation in T24 NIH cells

Receptor tyrosine-protein kinase erbB-4, sequence (Q15303 whole entry): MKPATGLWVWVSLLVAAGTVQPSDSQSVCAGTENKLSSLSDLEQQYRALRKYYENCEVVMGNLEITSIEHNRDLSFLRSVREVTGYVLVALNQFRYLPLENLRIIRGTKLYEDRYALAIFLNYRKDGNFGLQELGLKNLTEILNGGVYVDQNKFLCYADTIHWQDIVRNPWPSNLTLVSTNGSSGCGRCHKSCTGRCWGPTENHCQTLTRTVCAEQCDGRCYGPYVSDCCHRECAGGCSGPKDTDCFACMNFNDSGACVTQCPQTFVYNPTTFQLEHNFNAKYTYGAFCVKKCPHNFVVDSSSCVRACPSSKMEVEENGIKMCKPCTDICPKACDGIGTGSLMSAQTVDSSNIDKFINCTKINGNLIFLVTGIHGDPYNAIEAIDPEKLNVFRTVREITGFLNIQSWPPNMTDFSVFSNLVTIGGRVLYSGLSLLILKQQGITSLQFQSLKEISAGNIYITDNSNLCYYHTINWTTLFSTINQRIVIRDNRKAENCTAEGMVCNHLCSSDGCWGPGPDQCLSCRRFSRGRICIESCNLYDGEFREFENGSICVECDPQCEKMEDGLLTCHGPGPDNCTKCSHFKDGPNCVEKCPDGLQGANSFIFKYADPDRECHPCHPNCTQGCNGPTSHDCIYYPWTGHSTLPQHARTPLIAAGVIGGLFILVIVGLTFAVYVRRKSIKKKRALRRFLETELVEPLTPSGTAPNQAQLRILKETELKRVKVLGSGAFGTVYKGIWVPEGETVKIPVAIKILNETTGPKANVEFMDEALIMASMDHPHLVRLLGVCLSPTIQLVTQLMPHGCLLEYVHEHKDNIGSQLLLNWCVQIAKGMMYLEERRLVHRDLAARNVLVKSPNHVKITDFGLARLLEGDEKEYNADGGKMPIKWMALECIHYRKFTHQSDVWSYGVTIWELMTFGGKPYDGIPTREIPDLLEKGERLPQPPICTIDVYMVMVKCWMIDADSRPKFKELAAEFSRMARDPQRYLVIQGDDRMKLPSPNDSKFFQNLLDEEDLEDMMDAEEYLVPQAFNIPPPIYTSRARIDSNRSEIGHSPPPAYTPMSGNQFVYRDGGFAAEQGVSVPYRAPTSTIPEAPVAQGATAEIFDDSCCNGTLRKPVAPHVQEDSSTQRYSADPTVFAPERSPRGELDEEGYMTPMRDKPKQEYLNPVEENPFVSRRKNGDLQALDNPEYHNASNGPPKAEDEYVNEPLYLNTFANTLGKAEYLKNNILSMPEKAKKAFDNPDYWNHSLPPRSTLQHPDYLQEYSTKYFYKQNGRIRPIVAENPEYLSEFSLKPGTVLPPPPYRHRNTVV
T1 sequence (P00533 whole entry, the tested form may be a part): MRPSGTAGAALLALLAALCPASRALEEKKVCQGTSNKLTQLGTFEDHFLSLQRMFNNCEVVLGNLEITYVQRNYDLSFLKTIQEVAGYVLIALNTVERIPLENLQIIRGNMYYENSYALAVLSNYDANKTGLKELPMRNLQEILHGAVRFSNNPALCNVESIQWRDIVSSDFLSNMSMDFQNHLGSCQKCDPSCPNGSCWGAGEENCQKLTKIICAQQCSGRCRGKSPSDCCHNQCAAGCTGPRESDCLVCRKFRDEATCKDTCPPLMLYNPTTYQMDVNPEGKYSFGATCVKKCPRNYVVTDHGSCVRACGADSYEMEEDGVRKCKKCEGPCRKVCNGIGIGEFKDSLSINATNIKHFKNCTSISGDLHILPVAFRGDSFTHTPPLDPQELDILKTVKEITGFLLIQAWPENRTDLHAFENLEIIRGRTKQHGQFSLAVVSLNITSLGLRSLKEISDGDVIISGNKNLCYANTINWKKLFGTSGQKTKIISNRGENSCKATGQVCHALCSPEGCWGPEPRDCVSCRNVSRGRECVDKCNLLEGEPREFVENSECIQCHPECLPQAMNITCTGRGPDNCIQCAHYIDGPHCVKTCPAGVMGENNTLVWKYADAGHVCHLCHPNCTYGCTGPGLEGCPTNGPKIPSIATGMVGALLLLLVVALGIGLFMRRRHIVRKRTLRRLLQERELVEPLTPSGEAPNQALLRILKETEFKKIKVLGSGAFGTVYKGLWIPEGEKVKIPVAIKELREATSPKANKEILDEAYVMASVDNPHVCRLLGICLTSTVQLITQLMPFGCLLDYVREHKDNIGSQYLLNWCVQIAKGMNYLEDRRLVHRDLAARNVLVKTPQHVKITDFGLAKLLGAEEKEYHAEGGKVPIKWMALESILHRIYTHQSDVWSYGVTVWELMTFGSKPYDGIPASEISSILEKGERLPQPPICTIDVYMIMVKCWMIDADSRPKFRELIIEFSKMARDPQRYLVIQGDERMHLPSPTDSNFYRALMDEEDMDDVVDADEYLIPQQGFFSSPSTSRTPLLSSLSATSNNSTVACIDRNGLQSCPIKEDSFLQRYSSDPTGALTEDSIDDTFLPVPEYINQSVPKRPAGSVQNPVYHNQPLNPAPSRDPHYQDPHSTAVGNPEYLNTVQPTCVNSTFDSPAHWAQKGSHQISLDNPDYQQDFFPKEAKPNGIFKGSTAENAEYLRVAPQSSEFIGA
T2 sequence (P04626 whole entry): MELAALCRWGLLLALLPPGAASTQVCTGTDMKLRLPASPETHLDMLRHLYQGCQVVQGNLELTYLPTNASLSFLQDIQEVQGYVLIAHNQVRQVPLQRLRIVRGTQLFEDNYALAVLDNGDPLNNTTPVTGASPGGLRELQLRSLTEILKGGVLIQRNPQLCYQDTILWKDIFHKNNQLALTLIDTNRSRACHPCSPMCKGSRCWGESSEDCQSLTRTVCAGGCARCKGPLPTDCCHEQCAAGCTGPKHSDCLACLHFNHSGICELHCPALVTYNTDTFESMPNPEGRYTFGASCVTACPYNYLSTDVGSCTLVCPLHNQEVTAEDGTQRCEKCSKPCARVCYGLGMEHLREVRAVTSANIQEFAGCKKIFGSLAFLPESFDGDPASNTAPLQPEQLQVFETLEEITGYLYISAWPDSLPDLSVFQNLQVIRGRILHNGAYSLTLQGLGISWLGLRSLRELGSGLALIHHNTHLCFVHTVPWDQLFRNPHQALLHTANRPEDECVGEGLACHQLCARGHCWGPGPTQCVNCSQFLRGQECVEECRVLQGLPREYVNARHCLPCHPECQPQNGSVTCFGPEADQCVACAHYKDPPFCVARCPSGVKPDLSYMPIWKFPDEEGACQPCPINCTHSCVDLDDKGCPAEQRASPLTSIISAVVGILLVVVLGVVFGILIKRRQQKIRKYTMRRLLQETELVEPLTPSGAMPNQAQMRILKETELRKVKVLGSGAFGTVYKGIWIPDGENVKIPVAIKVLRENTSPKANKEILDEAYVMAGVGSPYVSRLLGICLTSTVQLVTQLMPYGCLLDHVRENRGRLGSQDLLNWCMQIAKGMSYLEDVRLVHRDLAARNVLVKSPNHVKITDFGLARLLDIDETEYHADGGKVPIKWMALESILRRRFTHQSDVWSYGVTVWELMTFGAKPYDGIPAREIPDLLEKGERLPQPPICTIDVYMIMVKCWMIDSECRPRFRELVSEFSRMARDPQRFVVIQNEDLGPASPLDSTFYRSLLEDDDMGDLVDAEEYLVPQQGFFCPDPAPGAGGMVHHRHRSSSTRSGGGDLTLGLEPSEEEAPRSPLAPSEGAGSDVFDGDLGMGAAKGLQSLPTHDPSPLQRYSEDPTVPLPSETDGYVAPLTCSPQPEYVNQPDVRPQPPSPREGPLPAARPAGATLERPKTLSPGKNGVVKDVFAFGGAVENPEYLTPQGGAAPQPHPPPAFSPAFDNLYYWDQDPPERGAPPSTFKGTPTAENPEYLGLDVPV
Insulin receptor, sequence (P06213 28-758 limits assumed): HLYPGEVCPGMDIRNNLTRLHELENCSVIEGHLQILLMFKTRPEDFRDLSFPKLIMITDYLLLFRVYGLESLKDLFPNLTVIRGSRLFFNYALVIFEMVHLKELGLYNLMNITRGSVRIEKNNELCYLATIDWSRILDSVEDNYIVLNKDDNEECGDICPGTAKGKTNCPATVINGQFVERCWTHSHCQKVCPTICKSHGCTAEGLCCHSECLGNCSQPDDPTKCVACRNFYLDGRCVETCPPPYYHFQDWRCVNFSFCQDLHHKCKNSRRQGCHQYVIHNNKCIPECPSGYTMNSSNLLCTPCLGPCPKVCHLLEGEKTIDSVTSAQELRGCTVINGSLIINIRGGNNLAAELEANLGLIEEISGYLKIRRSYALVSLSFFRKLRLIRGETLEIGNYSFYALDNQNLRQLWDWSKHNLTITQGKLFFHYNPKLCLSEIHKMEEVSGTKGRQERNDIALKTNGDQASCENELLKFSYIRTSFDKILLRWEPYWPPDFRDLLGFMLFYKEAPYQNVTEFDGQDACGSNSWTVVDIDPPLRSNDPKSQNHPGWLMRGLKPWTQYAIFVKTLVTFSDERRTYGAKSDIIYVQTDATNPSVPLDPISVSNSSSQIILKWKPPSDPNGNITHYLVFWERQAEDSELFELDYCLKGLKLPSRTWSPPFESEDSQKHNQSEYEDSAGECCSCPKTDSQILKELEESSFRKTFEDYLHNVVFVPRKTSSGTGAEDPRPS
Insulin receptor, sequence (P06213 763-1382 limits assumed): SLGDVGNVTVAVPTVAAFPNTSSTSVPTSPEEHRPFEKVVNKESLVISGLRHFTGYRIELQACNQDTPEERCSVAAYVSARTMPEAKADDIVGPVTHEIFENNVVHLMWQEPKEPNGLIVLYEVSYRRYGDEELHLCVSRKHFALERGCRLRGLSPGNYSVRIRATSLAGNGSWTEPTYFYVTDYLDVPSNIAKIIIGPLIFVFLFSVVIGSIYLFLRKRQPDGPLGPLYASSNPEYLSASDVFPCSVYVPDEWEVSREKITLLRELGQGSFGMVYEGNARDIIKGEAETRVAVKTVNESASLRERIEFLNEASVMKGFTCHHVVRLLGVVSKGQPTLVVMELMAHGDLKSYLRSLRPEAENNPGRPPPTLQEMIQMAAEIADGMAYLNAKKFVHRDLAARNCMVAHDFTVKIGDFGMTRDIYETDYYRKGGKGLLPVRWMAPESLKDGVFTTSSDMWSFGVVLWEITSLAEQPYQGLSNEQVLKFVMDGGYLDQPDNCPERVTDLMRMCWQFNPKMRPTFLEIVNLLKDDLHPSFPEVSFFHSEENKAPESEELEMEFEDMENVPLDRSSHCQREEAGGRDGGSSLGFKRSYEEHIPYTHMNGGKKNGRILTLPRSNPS

IC50 [1]: 1.4 nM
IC50 [2]: 25 nM
IC50 [3]: 2.1 nM
IC50 [4]: 7.3 nM
IC50 [5]: 43 nM
SMILES: O=C(C#CCO)Nc1ccc2ncnc(Nc3ccc(F)c(Cl)c3)c2c1

IC50 [1]: 1.3 nM
IC50 [2]: 1.8 nM
IC50 [3]: 0.8 nM
IC50 [4]: 1 nM
IC50 [5]: 5 nM
SMILES: O=C(C#CCCN1CCOCC1)Nc1cc2c(Nc3ccc(F)c(Cl)c3)ncnc2cn1

IC50 [1]: 1.1 nM
IC50 [2]: 2.7 nM
IC50 [3]: 0.5 nM
IC50 [4]: 0.8 nM
IC50 [5]: 3.5 nM
SMILES: CN1CCN(CCC#CC(=O)Nc2cc3c(Nc4ccc(F)c(Br)c4)ncnc3cn2)CC1

IC50 [1]: 1.7 nM
IC50 [2]: 12 nM
IC50 [3]: 2.3 nM
IC50 [4]: 4.3 nM
IC50 [5]: 7.6 nM
SMILES: O=C(C#CCCN1CCOCC1)Nc1ccc2ncnc(Nc3ccc(F)c(Cl)c3)c2c1

IC50 [1]: 1.7 nM
IC50 [2]: 9.6 nM
IC50 [3]: 3.8 nM
IC50 [4]: 2.4 nM
IC50 [5]: 170 nM
SMILES: CCCC#CC(=O)Nc1cc2c(Nc3ccc(F)c(Cl)c3)ncnc2cn1

IC50 [3]: 2.8 nM
IC50 [5]: 65 nM
SMILES: CC(C)N(CC#CC(=O)Nc1ccc2ncnc(Nc3ccc(F)c(Cl)c3)c2c1)C(C)C

IC50 [1]: 15 nM
IC50 [2]: 4.5 nM
IC50 [3]: 5.4 nM
IC50 [4]: 7.1 nM
IC50 [5]: 20 nM
SMILES: CCCCC#CC(=O)Nc1cc2c(Nc3ccc(F)c(Cl)c3)ncnc2cn1

IC50 [1]: 15 nM
IC50 [2]: 48 nM
IC50 [3]: 597 nM
IC50 [4]: 644 nM
IC50 [5]: 116 nM
SMILES: CCN(CC)CC#CC(=O)Nc1cc2c(Nc3ccc(F)c(Cl)c3)ncnc2cn1

IC50 [1]: 1.8 nM
IC50 [2]: 4.5 nM
IC50 [3]: 2.6 nM
IC50 [4]: 16 nM
IC50 [5]: 23 nM
SMILES: CCN(CC)CCC#CC(=O)Nc1ccc2ncnc(Nc3ccc(F)c(Cl)c3)c2c1

IC50 [1]: 40 nM
IC50 [2]: 11 nM
IC50 [3]: 464 nM
IC50 [4]: 624 nM
IC50 [5]: 32 nM
SMILES: CCCCN(CC#CC(=O)Nc1ccc2ncnc(Nc3ccc(F)c(Cl)c3)c2c1)CCCC

IC50 [1]: 0.9 nM
IC50 [2]: 4.3 nM
IC50 [3]: 2.1 nM
IC50 [4]: 1.8 nM
IC50 [5]: 2 nM
SMILES: O=C(C#CCCN1CCCCC1)Nc1cc2c(Nc3ccc(F)c(Cl)c3)ncnc2cn1

IC50 [1]: 0.6 nM
IC50 [2]: 15 nM
IC50 [3]: 2.4 nM
IC50 [4]: 13 nM
SMILES: C#CC(=O)Nc1cc2c(Nc3cccc(Br)c3)ncnc2cn1

IC50 [3]: 1.1 nM
IC50 [4]: 0.5 nM
IC50 [5]: 24 nM
SMILES: CC#CC(=O)Nc1cc2c(Nc3ccc(F)c(Cl)c3)ncnc2cn1

IC50 [1]: 86 nM
IC50 [2]: 31 nM
IC50 [3]: 300 nM
IC50 [4]: 229 nM
IC50 [5]: 173 nM
SMILES: O=C(C#CCN1CCOCC1)Nc1ccc2ncnc(Nc3ccc(F)c(Cl)c3)c2c1

Vd [6]: 3.1 L/kg
Vd [7]: 0.93 L/kg
Vd [8]: 1.7 L/kg
AUC [9]: 703 ng·h/mL
AUC [10]: 7470 ng·h/mL
AUC [14]: 1190 ng·h/mL
AUC [15]: 240 ng·h/mL
AUC [16]: 15200 ng·h/mL
AUC [17]: 485 ng·h/mL
bioavailability [18]: 11.4%
bioavailability [19]: 67.8%
bioavailability [20]: 6.75%
Cmax [21]: 56.3 ng/mL
Cmax [22]: 4180 ng/mL
Cmax [23]: 83.5 ng/mL
Tmax [24]: 4.7 h
Tmax [25]: 1 h
Tmax [26]: 3.5 h
half-life [27]: 0.83 h
half-life [28]: 1.86 h
half-life [29]: 0.37 h
clearance [30]: 119 mL/min/kg
clearance [31]: 11.5 mL/min/kg
clearance [32]: 85.8 mL/min/kg
IC50 [33]: > 50000 nM
IC50 [34]: > 50000 nM
IC50 [35]: > 50000 nM
IC50 [3]: 0.7 nM
IC50 [4]: 1.2 nM
IC50 [5]: 1 nM
IC50 [38]: 0.8 nM
SMILES: CN1CCN(CCC#CC(=O)Nc2cc3c(Nc4ccc(F)c(Cl)c4)ncnc3cn2)CC1
Activity [11]: Active
Activity [12]: Active
Activity [13]: Active
Activity [36]: Active
Activity [37]: Active

IC50 [1]: 3.1 nM
IC50 [2]: 6.8 nM
IC50 [3]: 46 nM
IC50 [4]: 310 nM
IC50 [5]: 7.5 nM
SMILES: CCN(CC)CC#CC(=O)Nc1ccc2ncnc(Nc3ccc(F)c(Cl)c3)c2c1

IC50 [1]: 3.1 nM
IC50 [2]: 14 nM
IC50 [3]: 26 nM
IC50 [4]: 6.2 nM
IC50 [5]: 22 nM
SMILES: O=C(C#CCN1CCOCC1)Nc1cc2c(Nc3ccc(F)c(Cl)c3)ncnc2cn1

IC50 [1]: 1.5 nM
IC50 [2]: 4.5 nM
IC50 [3]: 0.7 nM
IC50 [4]: 1 nM
IC50 [5]: 0.5 nM
SMILES: O=C(C#CCCN1CCOCC1)Nc1cc2c(Nc3ccc(F)c(Br)c3)ncnc2cn1

IC50 [3]: 1.9 nM
IC50 [4]: 1.7 nM
SMILES: C#CC(=O)Nc1ccc2ncnc(Nc3cccc(Br)c3)c2c1

IC50 [3]: 17 nM
IC50 [4]: 12 nM
SMILES: CC#CC(=O)Nc1ccc2ncnc(Nc3cccc(Br)c3)c2c1

IC50 [1]: 44 nM
IC50 [2]: 73 nM
IC50 [3]: > 1000 nM
IC50 [4]: 538 nM
IC50 [5]: 36 nM
SMILES: CC(C)N(CC#CC(=O)Nc1cc2c(Nc3ccc(F)c(Cl)c3)ncnc2cn1)C(C)C

IC50 [1]: 17 nM
IC50 [2]: 49 nM
IC50 [3]: 67 nM
IC50 [4]: 73 nM
IC50 [5]: 320 nM
SMILES: CCCCN(CC#CC(=O)Nc1cc2c(Nc3ccc(F)c(Cl)c3)ncnc2cn1)CCCC
